Reference: ChEMBL document CHEMBL5042538 (J Med Chem, 2022)

What was measured:
[1] = Time dependent inhibition of human CYP3A in human liver microsomes using midazolam as substrate preincubated for 30 mins in presence of NADPH-generating system followed by substrate addition incubated for 10 mins by LC-MS/MS analysis; assay type: ADME
[2] = Inactivation of CYP3A in human liver microsomes at 0.25 uM using midazolam as substrate in presence of NADPH generating system and catalase; assay type: ADME
CYP3A4 [3] = target: T1, CYP3A4 (Homo sapiens, UniProt P08684); experiment: (§1) Ratio of IC50 for time dependent inhibition of recombinant human CYP3A4 incubated for 30 mins by LC-MS/MS analysis to IC50 for time dependent inhibition of recombinant human CYP3A4 using midazolam as substrate preincubated for 30 mins in presence of NADPH-generating system followed by substrate addition further incubated for 30 mins by LC-MS/MS analysis; conditions: recombinant human CYP3A4, probe midazolam, read-out: Ratio IC50
T1 sequence (P08684 whole entry): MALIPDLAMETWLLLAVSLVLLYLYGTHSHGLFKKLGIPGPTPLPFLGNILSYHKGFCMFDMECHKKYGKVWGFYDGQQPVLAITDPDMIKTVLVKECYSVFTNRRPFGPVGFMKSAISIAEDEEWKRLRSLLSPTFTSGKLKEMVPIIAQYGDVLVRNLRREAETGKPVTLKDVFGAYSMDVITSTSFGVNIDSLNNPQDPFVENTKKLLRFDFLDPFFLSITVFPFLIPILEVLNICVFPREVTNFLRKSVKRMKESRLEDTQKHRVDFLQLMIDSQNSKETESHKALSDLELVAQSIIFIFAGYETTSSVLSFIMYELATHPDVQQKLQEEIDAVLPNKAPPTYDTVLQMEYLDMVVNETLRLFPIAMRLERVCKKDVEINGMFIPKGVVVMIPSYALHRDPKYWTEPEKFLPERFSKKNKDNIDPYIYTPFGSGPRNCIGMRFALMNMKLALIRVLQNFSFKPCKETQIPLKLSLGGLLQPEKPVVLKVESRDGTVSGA

CYP3A [4] = experiment: as §1, with “CYP3A in” for “recombinant”, “liver microsomes” for “CYP3A4”; conditions: probe midazolam, read-out: Ratio IC50
Cytochrome P450 3A4 [5] = target: T2, Cytochrome P450 3A4 (Homo sapiens, UniProt P08684); experiment: Inactivation of recombinant human CYP3A4 assessed as partition ratio in presence of NADPH-generating system; assay type: ADME; conditions: recombinant enzyme
T2 sequence (P08684 whole entry): as above

Cytochrome P450 3A5 [6] = target: T3, Cytochrome P450 3A5 (Homo sapiens, UniProt P20815); experiment: Time dependent inhibition of recombinant human CYP3A5 using midazolam as substrate preincubated for 30 mins in presence of NADPH generating system followed by substrate addition incubated for 30 mins by LC-MS/MS analysis; assay type: ADME
T3 sequence (P20815 whole entry): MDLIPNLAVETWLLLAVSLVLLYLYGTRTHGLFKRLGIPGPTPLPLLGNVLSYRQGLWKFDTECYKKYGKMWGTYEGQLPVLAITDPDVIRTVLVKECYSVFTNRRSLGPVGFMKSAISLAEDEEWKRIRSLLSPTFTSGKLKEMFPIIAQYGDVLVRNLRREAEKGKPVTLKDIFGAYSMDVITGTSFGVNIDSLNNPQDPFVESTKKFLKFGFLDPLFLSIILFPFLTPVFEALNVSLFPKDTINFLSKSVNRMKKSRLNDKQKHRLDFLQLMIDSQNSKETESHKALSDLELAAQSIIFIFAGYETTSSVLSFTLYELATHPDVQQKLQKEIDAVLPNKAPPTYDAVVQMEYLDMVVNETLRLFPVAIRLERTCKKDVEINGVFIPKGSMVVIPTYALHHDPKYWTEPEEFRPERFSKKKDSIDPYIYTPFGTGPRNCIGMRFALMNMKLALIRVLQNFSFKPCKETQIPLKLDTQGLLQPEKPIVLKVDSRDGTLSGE

[7] = Time dependent inhibition of CYP3A in human liver microsomes incubated for 30 mins in presence of NADPH generating system by LC-MS/MS analysis; assay type: ADME
[8] = Time dependent inhibition of CYP3A in human liver microsomes using midazolam as substrate preincubated for 30 mins in presence of NADPH generating system followed by substrate addition incubated for 30 mins by LC-MS/MS analysi; assay type: ADME
Cytochrome P450 3A4 [9] = target: T2, Cytochrome P450 3A4; experiment: Time dependent inhibition of recombinant human CYP3A4 incubated for 30 mins in presence of NADPH generating system by LC-MS/MS analysis; assay type: ADME
Cytochrome P450 3A5 [10] = target: T3, Cytochrome P450 3A5; experiment: Time dependent inhibition of recombinant human CYP3A5 incubated for 30 mins in presence of NADPH generating system by LC-MS/MS analysis; assay type: ADME
Cytochrome P450 3A7 [11] = target: T4, Cytochrome P450 3A7 (Homo sapiens, UniProt P24462); experiment: Time dependent inhibition of recombinant human CYP3A7 incubated for 30 mins in presence of NADPH generating system by LC-MS/MS analysis; assay type: ADME
T4 sequence (P24462 whole entry): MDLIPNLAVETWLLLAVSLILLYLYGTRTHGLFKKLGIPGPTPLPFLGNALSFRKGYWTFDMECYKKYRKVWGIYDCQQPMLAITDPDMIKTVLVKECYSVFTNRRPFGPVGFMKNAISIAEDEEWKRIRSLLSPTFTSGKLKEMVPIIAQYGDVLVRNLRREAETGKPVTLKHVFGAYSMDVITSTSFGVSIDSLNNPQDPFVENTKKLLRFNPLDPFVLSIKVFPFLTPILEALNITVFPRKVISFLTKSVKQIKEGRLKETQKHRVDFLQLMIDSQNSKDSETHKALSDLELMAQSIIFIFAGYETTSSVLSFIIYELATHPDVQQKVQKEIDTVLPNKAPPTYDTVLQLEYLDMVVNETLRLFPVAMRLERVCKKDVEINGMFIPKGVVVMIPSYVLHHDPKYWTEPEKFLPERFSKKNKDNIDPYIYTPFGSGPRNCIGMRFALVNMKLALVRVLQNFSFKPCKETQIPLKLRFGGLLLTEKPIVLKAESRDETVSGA

Cytochrome P450 3A4 [12] = target: T2, Cytochrome P450 3A4; experiment: Time dependent inhibition of recombinant human CYP3A4 using midazolam as substrate preincubated for 30 mins in presence of NADPH generating system followed by substrate addition incubated for 30 mins by LC-MS/MS analysi; assay type: ADME
Cytochrome P450 3A7 [13] = target: T4, Cytochrome P450 3A7; experiment: Time dependent inhibition of recombinant human CYP3A7 using midazolam as substrate preincubated for 30 mins in presence of NADPH generating system followed by substrate addition incubated for 30 mins by LC-MS/MS analysi; assay type: ADME
[14] = Inactivation of CYP3A in human liver microsomes at 0.25 uM using midazolam as substrate in presence of NADPH generating system and mannitol; assay type: ADME
CYP3A5 = CYP3A5 (Homo sapiens, UniProt P20815); experiment: as §1, with “CYP3A5” for “CYP3A4”; conditions: recombinant human CYP3A5, probe midazolam, read-out: Ratio IC50
Chain of CYP3A5 (P20815 whole entry): as the sequence (P20815 whole entry) above

[15] = Inactivation of CYP3A in human liver microsomes at 0.25 uM using midazolam as substrate in presence of NADPH generating system and super oxide dismutase; assay type: ADME
[16] = Inactivation of CYP3A in human liver microsomes at 0.25 uM using midazolam as substrate in presence of NADPH generating system and ferric cyanide; assay type: ADME
CYP3A7 = CYP3A7 (Homo sapiens, UniProt P24462); experiment: as §1, with “CYP3A7” for “CYP3A4”; conditions: recombinant human CYP3A7, probe midazolam, read-out: Ratio IC50
Chain of CYP3A7 (P24462 whole entry): as the sequence (P24462 whole entry) above

CYP3A [17] = experiment: Inactivation of CYP3A in human liver microsomes using midazolam as substrate assessed as enzyme remaining activity in presence of glutathione; assay type: ADME; conditions: probe midazolam, read-out: INH
[18] = Inhibition of CYP3A in human liver microsomes at 2.5 uM using Nifedipine as substrate at 10 to 20 fold excess concentration preincubated for 5 mins followed by beta-NADP addition and measured upto 12 mins; assay type: ADME; conditions: 0.2 h, time <=17 min
[19] = Inhibition of CYP3A in human liver microsomes at 2.5 uM using de-oxyschizandrin as substrate at 10 to 20 fold excess concentration preincubated for 5 mins followed by beta-NADP addition and measured upto 12 mins; assay type: ADME; conditions: 0.2 h, time <=17 min
CYP3A4 [20] = target: T1, CYP3A4; experiment: Time dependent inhibition of CYP3A4 in human liver microsomes assessed as enzyme remaining activity at 2.5 uM using midazolam as substrate preincubated for 30 mins in presence of NADPH-generating system relative to control; assay type: ADME; conditions: probe midazolam, read-out: TDI
CYP3A4 [21] = target: T1, CYP3A4; experiment: Time dependent inhibition of recombinant human CYP3A4 assessed as enzyme remaining activity at 2.5 uM using midazolam as substrate preincubated for 30 mins in presence of NADPH-generating system relative to control; assay type: ADME; conditions: recombinant human CYP3A4, probe midazolam, read-out: TDI
CYP3A4 [22] = experiment: Time dependent inhibition of CYP3A4 in human liver microsomes assessed as enzyme remaining activity at 2.5 uM using midazolam as substrate incubated for 30 mins relative to control; assay type: ADME; conditions: probe midazolam, read-out: TDI
CYP3A4 [23] = target: T1, CYP3A4; experiment: Time dependent inhibition of recombinant human CYP3A4 assessed as enzyme remaining activity at 2.5 uM using midazolam as substrate incubated for 30 mins relative to control; assay type: ADME; conditions: recombinant human CYP3A4, probe midazolam, read-out: TDI
Cytochrome P450 3A4 [24] = target: T2, Cytochrome P450 3A4; experiment: Inactivation of CYP3A4 in human liver microsomes assessed as inhibition constant using midazolam as substrate preincubated for 5 mins followed by beta-NADP addition for 15 mins and midazolam addition after 10 mins in presence of NADPH-generating system by LC-MS/MS analysis; assay type: ADME
Cytochrome P450 3A4 [25] = target: T2, Cytochrome P450 3A4; experiment: Inactivation of recombinant human CYP3A4 assessed as inhibition constant using midazolam as substrate preincubated for 5 mins followed by beta-NADP addition for 15 mins and midazolam addition after 10 mins in presence of NADPH-generating system by LC-MS/MS analysis; assay type: ADME
CYP3A4 [26] = target: T1, CYP3A4; experiment: Inactivation of CYP3A4 in human liver microsomes assessed as inactivation constant using midazolam as substrate preincubated for 5 mins followed by beta-NADP addition for 15 mins and midazolam addition after 10 mins in presence of NADPH-generating system by LC-MS/MS analysis; assay type: ADME; conditions: probe midazolam, time 30 min
CYP3A4 [27] = target: T1, CYP3A4; experiment: Inactivation of recombinant human CYP3A4 assessed as inactivation constant using midazolam as substrate preincubated for 5 mins followed by beta-NADP addition for 15 mins and midazolam addition after 10 mins in presence of NADPH-generating system by LC-MS/MS analysis; assay type: ADME; conditions: recombinant human CYP3A4, probe midazolam, time 30 min
CYP3A4 [28] = target: T1, CYP3A4; experiment: Inactivation of recombinant human CYP3A4 at 0.1 uM for 10 mins relative to control; assay type: ADME
Cytochrome P450 3A4 [29] = target: T2, Cytochrome P450 3A4; experiment: Drug metabolism assessed as human CYP3A4-mediated M1 metabolite formation at 7.32 mins in presence of NADPH generating system by LC-MS/MS analysis; assay type: ADME; conditions: recombinant enzyme, 0.122 h
Cytochrome P450 3A4 [30] = target: T2, Cytochrome P450 3A4; experiment: Drug metabolism assessed as human CYP3A4-mediated M2 metabolite formation at 7.80 mins in presence of NADPH generating system by LC-MS/MS analysis; assay type: ADME; conditions: recombinant enzyme, 0.13 h, time 7.8 min
[31] = Drug metabolism assessed as human CYP2D6-mediated M1 metabolite formation at 7.32 mins in presence of NADPH generating system by LC-MS/MS analysis; assay type: ADME; conditions: recombinant enzyme, 0.122 h
[32] = Drug metabolism assessed as human CYP2D6-mediated M2 metabolite formation at 7.80 mins in presence of NADPH generating system by LC-MS/MS analysis; assay type: ADME; conditions: recombinant enzyme, 0.13 h, time 7.8 min
CYP3A [33] = experiment: Inhibition of CYP3A in human liver microsomes at 1 uM using midazolam as substrate incubated for 10 mins relative to control; assay type: ADME; conditions: probe midazolam
CYP3A [34] = experiment: Time dependent inhibition of CYP3A in human liver microsomes assessed as enzyme remaining activity at 10 uM using N-ethyl-1,8-naphthalimide as substrate preincubated for 30 mins in presence of NADPH generating system followed by substrate addition and incubated for 10 mins by microplate reader analysis relative to control; assay type: ADME; conditions: probe N-ethyl-1,8-naphthalimide, time 40 min, read-out: TDI
CYP3A [35] = experiment: Inhibition of CYP3A in human liver microsomes at 10 uM using midazolam as substrate incubated for 10 mins relative to control; assay type: ADME; conditions: probe midazolam

Q: With `C[C@]12CCC(=O)C[C@H]1CC[C@@H]1[C@@H]2CC[C@]2(C)[C@@H](c3ccc(=O)oc3)CC[C@]12O` as the molecule, how does the IC50 [1] read?
A: 30 nM

Q: What about the “inhibition (INH)” value [2] of the same molecule?
A: Active

Q: And the IC50 shift at 0.5 h (CYP3A4 [3])?
A: 17.3

Q: What about the IC50 shift at 0.5 h (CYP3A [4]) of the same molecule?
A: 12.3

Q: What about the Ratio (Cytochrome P450 3A4 [5]) of the same molecule?
A: 0.75

Q: And the IC50 (Cytochrome P450 3A5 [6])?
A: 2340 nM

Q: What about the IC50 [7] of the same molecule?
A: 370 nM

Q: And the IC50 [8]?
A: 450 nM

Q: And the IC50 (Cytochrome P450 3A4 [9])?
A: 1560 nM

Q: What about the IC50 (Cytochrome P450 3A5 [10]) of the same molecule?
A: 5490 nM

Q: And the IC50 (Cytochrome P450 3A7 [11])?
A: 10800 nM

Q: And the IC50 (Cytochrome P450 3A4 [12])?
A: 90 nM

Q: What about the IC50 (Cytochrome P450 3A7 [13]) of the same molecule?
A: 64800 nM

Q: What about the “inhibition (INH)” value [14] of the same molecule?
A: Active

Q: What about the IC50 shift at 0.5 h (CYP3A5) of the same molecule?
A: 5.87

Q: What about the “inhibition (INH)” value [15] of the same molecule?
A: Active

Q: What about the “inhibition (INH)” value [16] of the same molecule?
A: Active

Q: And the IC50 shift at 0.5 h (CYP3A7)?
A: 17.5

Q: What about the activity (CYP3A [17]) of the same molecule?
A: 43.8%

Q: What about the “inhibition (INH)” value [18] of the same molecule?
A: Not Active

Q: What about the “inhibition (INH)” value [19] of the same molecule?
A: Not Active

Q: And the activity at 30 min, 2.5 µM (CYP3A4 [20])?
A: 19.7%

Q: What about the activity at 30 min, 2.5 µM (CYP3A4 [21]) of the same molecule?
A: 11.9%

Q: And the activity at 0.5 h, 2.5 µM (CYP3A4 [22])?
A: 72.5%

Q: What about the activity at 0.5 h, 2.5 µM (CYP3A4 [23]) of the same molecule?
A: 81.2%

Q: What about the Ki (Cytochrome P450 3A4 [24]) of the same molecule?
A: 660 nM

Q: And the Ki (Cytochrome P450 3A4 [25])?
A: 250 nM

Q: What about the kinact (CYP3A4 [26]) of the same molecule?
A: 0.00107 s⁻¹

Q: What about the kinact (CYP3A4 [27]) of the same molecule?
A: 0.00268 s⁻¹

Q: What about the inhibition at 10 min, 0.1 µM (CYP3A4 [28]) of the same molecule?
A: 50%

Q: What about the Drug metabolism (Cytochrome P450 3A4 [29]) of the same molecule?
A: Metabolite_Detected

Q: What about the Drug metabolism (Cytochrome P450 3A4 [30]) of the same molecule?
A: Metabolite_Detected

Q: And the Drug metabolism [31]?
A: Metabolite_Detected

Q: And the Drug metabolism [32]?
A: Metabolite_Detected

Q: What about the inhibition at 10 min, 1 µM (CYP3A [33]) of the same molecule?
A: 49%

Q: What does the source list for `CC(=O)O[C@H]1[C@H]2O[C@]23[C@@H]2CC[C@@H]4CC(=O)CC[C@]4(C)[C@H]2CC[C@]3(C)[C@H]1c1ccc(=O)oc1`?
A: IC50 shift at 0.5 h (CYP3A [4]): 24.8; IC50 [7]: 13400 nM; IC50 [8]: 540 nM

Q: With `C[C@]12CCC(=O)C[C@H]1CC[C@@H]1[C@@H]2CC[C@]2(C)[C@@H](c3ccc(=O)oc3)C[C@H]3O[C@]132` as the molecule, how does the IC50 shift at 0.5 h (CYP3A [4]) read?
A: 11.4

Q: What about the IC50 [7] of the same molecule?
A: 5930 nM

Q: And the IC50 [8]?
A: 520 nM

Q: Which results are given for `C[C@]12CC[C@H](O)C[C@H]1CC[C@@H]1[C@@H]2CC[C@]2(C)[C@@H](c3ccc(=O)oc3)CC[C@]12O` [BUFALIN]?
A: activity at 10 min, 10 µM (CYP3A [34]): 6.81%; IC50 [7]: 11400 nM; IC50 [8]: 740 nM; inhibition at 10 min, 10 µM (CYP3A [35]): 53%
